Columns and labels:
[1] = biological target: T1, pteridine reductase 1 (TbPTR1) (Trypanosoma brucei, UniProt O76290); assay: cocrystal structure of ternary complex; cyt c-coupled enzyme inhibition assay; format: biochemical
T1 construct: gene PTR1; N-terminal hexahistidine-tagged protein
T1 sequence (O76290 1-268): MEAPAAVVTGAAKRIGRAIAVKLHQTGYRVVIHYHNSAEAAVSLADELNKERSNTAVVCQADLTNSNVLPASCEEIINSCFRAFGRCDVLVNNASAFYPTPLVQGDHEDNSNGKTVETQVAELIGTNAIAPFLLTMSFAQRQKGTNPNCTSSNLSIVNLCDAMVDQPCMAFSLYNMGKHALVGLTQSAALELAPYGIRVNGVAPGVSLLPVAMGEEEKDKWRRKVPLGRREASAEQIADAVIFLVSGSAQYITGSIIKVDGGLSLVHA

[2] = biological target: T1, pteridine reductase 1 (TbPTR1); assay: cocrystal structure of ternary complex with DDD00066641; format: binding
[3] = substrate: NC(=O)C1=CN([C@@H]2O[C@H](COP(=O)(O)OP(=O)(O)OC[C@H]3O[C@@H](n4cnc5c(N)ncnc54)[C@H](OP(=O)(O)O)[C@@H]3O)[C@@H](O)[C@H]2O)C=CC1; assay: HPLC enzyme kinetics (Km app, data not shown); format: biochemical, Trypanosoma brucei; conditions: varied: cofactor
[4] = substrate: C[C@H](O)[C@H](O)C1=Nc2c(nc(N)[nH]c2=O)NC1; assay: HPLC enzyme kinetics (Km app), with substrate inhibition; format: biochemical, Trypanosoma brucei; conditions: NADPH

Molecule: Cc1ccc(-c2ccc3nc(N)nc(N)c3c2)cc1 [DDD00066641, 6-p-tolylquinazoline-2,4-diamine]
- Ki [1]: 3 ± 0.8 nM

Molecule: NC(=O)c1ccc[n+]([C@@H]2O[C@H](COP(=O)(O)OP(=O)(O)OC[C@H]3O[C@@H](n4cnc5c(N)ncnc54)[C@H](OP(=O)(O)O)[C@@H]3O)[C@@H](O)[C@H]2O)c1 [NADP+]
- cocrystal structure of ternary complex with DDD00066641 [2]: The structure of the ternary complex of TbPTR1 with this ligand and the cofactor NADP^+ was obtained by cocrystallization

B1: pteridine reductase 1 (TbPTR1) (Trypanosoma brucei brucei) (protein)
chain: MEAPAAVVTGAAKRIGRAIAVKLHQTGYRVVIHYHNSAEAAVSLADELNKERSNTAVVCQADLTNSNVLPASCEEIINSCFRAFGRCDVLVNNASAFYPTPLVQGDHEDNSNGKTVETQVAELIGTNAIAPFLLTMSFAQRQKGTNPNCTSSNLSIVNLCDAMVDQPCMAFSLYNMGKHALVGLTQSAALELAPYGIRVNGVAPGVSLLPVAMGEEEKDKWRRKVPLGRREASAEQIADAVIFLVSGSAQYITGSIIKVDGGLSLVHA
notes: N-terminal hexahistidine-tagged protein
- Km [3]: 1.6 ± 0.1 µM
- Km [4]: 0.025 ± 0.0067 µM

Source: paper PMC2789237 (Analytical Biochemistry, 2010)
